Laboratory results reported in patent US20230279025A1, “KRAS G12D INHIBITORS” (Mirati Therapeutics, Inc., priority 2020, published 2023).
Structures can show the parent of a compound that is named as a salt.

These molecules were tested against KRas G12D (Homo sapiens (Human), UniProt P01116, G12D) (assay: KRas G12D Binding Assay (TR-FRET displacement of Cy5 labelled tracer)). Details: GDP-loaded KRAS G12D (amino acids 1:169), 60 minute incubation at 22° C.
Procedure: After a 60 minute incubation at 22° C., the reaction was measured using a PerkinElmer EnVision multimode plate reader via TR-FRET dual wavelength detection, and the percent of control (POC) calculated using a ratiometric emission factor. […] The POC values were fit to a 4-parameter logistic curve and the IC50 value was determined as the concentration where the curve crosses 50 POC.
ND stands for “not determined.”

Sequence of KRas G12D (P01116 other isoform, or with tags, fused parts or gaps G12D): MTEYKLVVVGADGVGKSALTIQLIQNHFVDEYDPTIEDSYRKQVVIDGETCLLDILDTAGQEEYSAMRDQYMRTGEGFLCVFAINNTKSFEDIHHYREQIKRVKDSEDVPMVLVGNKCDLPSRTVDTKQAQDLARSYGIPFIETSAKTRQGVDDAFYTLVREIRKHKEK

| SMILES | IC50 [nM] |
| --- | --- |
| CN(C)C(=O)NC[C@H]1CC[C@@]2(COc3nc(N4CC5CCC(C4)N5)c4cnc(-c5cccc6cccc(Cl)c56)c(F)c4n3)CCCN12 [Example 412, 3-((7a-(((4-(3,8-diazabicyclo[3.2.1]octan-3-yl)-7-(8-chloronaphthalen-1-yl)-8-fluoropyrido[4,3-d]pyrimidin-2-yl)oxy)methyl)hexahydro-1H-pyrrolizin-3-yl)methyl)-1,1-dimethylurea] | 17.7 |
| Fc1c(-c2ccccc2C2CC2)ncc2c(N3C[C@H]4CC[C@@H](C3)N4)nc(OC[C@@]34CCCN3C[C@H](F)C4)nc12 [Example 448, 4-((1R,5S)-3,8-diazabicyclo[3.2.1]octan-3-yl)-7-(2-cyclopropylphenyl)-8-fluoro-2-(((2R,7aS)-2-fluorohexahydro-1H-pyrrolizin-7a-yl)methoxy)pyrido[4,3-d]pyrimidine] | 130 |
| Fc1ccccc1-c1ncc2c(N3C[C@H]4CC[C@@H](C3)N4)nc(OCC34CCCN3CCC4)nc2c1F [Example 264, 4-((1R,5S)-3,8-diazabicyclo[3.2.1]octan-3-yl)-8-fluoro-7-(2-fluorophenyl)-2-((hexahydro-1H-pyrrolizin-7a-yl)methoxy)pyrido[4,3-d]pyrimidine] | 4700 |
| Cn1cc([C@H]2CN3CCC[C@]3(COc3nc(N4CC5CCC(C4)N5)c4cnc(-c5cccc6cccc(Cl)c56)c(F)c4n3)C2)cn1 (stereo in doubt) [Example 220, 4-((1R,5S)-3,8-diazabicyclo[3.2.1]octan-3-yl)-7-(8-chloronaphthalen-1-yl)-8-fluoro-2-((2-(1-methyl-1H-pyrazol-4-yl)tetrahydro-1H-pyrrolizin-7a(5H)-yl)methoxy)pyrido[4,3-d]pyrimidine tris-hydrochloride salt] | 8.7 |
| CN1CCc2cccc(Oc3nc(N4C[C@H]5CC[C@@H](C4)N5)c4cnc(-c5cccc6cccc(Cl)c56)c(F)c4n3)c2C1 [Example 378, 4-((1R,5S)-3,8-diazabicyclo[3.2.1]octan-3-yl)-7-(8-chloronaphthalen-1-yl)-8-fluoro-2-((2-methyl-1,2,3,4-tetrahydroisoquinolin-8-yl)oxy)pyrido[4,3-d]pyrimidine] | 6250 |
| Fc1c(-c2cccc3c2CCC3)ncc2c(N3CC4CCC(C3)N4)nc(OC[C@@]34CCCN3C[C@H](F)C4)nc12 [Example 428, 4-(3,8-diazabicyclo[3.2.1]octan-3-yl)-7-(2,3-dihydro-1H-inden-4-yl)-8-fluoro-2-(((2R,7aS)-2-fluorotetrahydro-1H-pyrrolizin-7a(5H)-yl)methoxy)pyrido[4,3-d]pyrimidine] | 92.1 |
| CN(C)c1ccccc1-c1ncc2c(N3C[C@H]4CC[C@@H](C3)N4)nc(OCC34CCCN3CCC4)nc2c1F [Example 296, 2-(4-((1R,5S)-3,8-diazabicyclo[3.2.1]octan-3-yl)-8-fluoro-2-((hexahydro-1H-pyrrolizin-7a-yl)methoxy)pyrido[4,3-d]pyrimidin-7-yl)-N,N-dimethylaniline] | 112 |
| C[C@@H]1C[C@@H]1c1ccccc1-c1ncc2c(N3C[C@H]4CC[C@@H](C3)N4)nc(OCC34CCCN3CCC4)nc2c1F [Example 286, 4-((1R,5S)-3,8-diazabicyclo[3.2.1]octan-3-yl)-8-fluoro-2-((hexahydro-1H-pyrrolizin-7a-yl)methoxy)-7-(2-((S,2R)-2-methylcyclopropyl)phenyl)pyrido[4,3-d]pyrimidine] | 17.2 |
| CN1CCC[C@H]1COc1nc(N2C[C@H]3CC[C@@H](C2)N3)c2cnc(-c3cc(O)cc4ccccc34)c(Cl)c2n1 [Example 191, 4-(4-((1R,5S)-3,8-diazabicyclo[3.2.1]octan-3-yl)-8-chloro-2-(((S)-1-methylpyrrolidin-2-yl)methoxy)pyrido[4,3-d]pyrimidin-7-yl)naphthalen-2-ol] | 69.1 |
| CCc1cccc2cc(O)cc(-c3ncc4c(N5C[C@H]6CC[C@@H](C5)N6)nc(OC[C@@]56CCCN5C[C@H](F)C6)nc4c3F)c12 [Example 259, 4-(4-((1R,5S)-3,8-diazabicyclo[3.2.1]octan-3-yl)-8-fluoro-2-(((2R,7aS)-2-fluorotetrahydro-1H-pyrrolizin-7a(5H)-yl)methoxy)pyrido[4,3-d]pyrimidin-7-yl)-5-ethylnaphthalen-2-ol] | 0.8 |
| O=C1CCC2(COc3nc(N4CC5CCC(C4)N5)c4cnc(-c5cc(O)cc6ccccc56)c(F)c4n3)CCCN12 (centres unmarked) [Example 462, 7a-(((4-(3,8-diazabicyclo[3.2.1]octan-3-yl)-8-fluoro-7-(3-hydroxynaphthalen-1-yl)pyrido[4,3-d]pyrimidin-2-yl)oxy)methyl)tetrahydro-1H-pyrrolizin-3(2H)-one] | 0.751 |
| Fc1c(-c2c(Cl)ccc3ccccc23)ncc2c(N3C[C@H]4CC[C@@H](C3)N4)nc(OCC34CCCN3CCC4)nc12 [Example 349, 4-((1R,5S)-3,8-diazabicyclo[3.2.1]octan-3-yl)-7-(2-chloronaphthalen-1-yl)-8-fluoro-2-((tetrahydro-1H-pyrrolizin-7a(5H)-yl)methoxy)pyrido[4,3-d]pyrimidine] | 561 |
| Fc1c(-c2cccc3cccc(F)c23)ncc2c(N3C[C@H]4CC[C@@H](C3)N4)nc(OCC34CCCN3CCC4)nc12 [Example 234, 4-((1R,5S)-3,8-diazabicyclo[3.2.1]octan-3-yl)-8-fluoro-7-(8-fluoronaphthalen-1-yl)-2-((tetrahydro-1H-pyrrolizin-7a(5H)-yl)methoxy)pyrido[4,3-d]pyrimidine] | 5.9 |
| Fc1c(-c2ccccc2OC(F)F)ncc2c(N3C[C@H]4CC[C@@H](C3)N4)nc(OCC34CCCN3CCC4)nc12 [Example 303, 4-((1R,5S)-3,8-diazabicyclo[3.2.1]octan-3-yl)-7-(2-(difluoromethoxy)phenyl)-8-fluoro-2-((hexahydro-1H-pyrrolizin-7a-yl)methoxy)pyrido[4,3-d]pyrimidine] | 357 |
| CNC(C)COc1nc(N2CC3CCC(C2)N3)c2cnc(-c3cccc4cccc(Cl)c34)c(F)c2n1 (centres unmarked) [Example 363, bis(2,2,2-trifluoroacetate)] | 3930 |
| Fc1c(-c2ccccc2[C@@H]2C[C@H]2F)ncc2c(N3C[C@H]4CC[C@@H](C3)N4)nc(OCC34CCCN3CCC4)nc12 (relative stereo) [Example 285, 4-((1R,5S)-3,8-diazabicyclo[3.2.1]octan-3-yl)-8-fluoro-7-(2-(trans-2-fluorocyclopropyl)phenyl)-2-((hexahydro-1H-pyrrolizin-7a-yl)methoxy)pyrido[4,3-d]pyrimidine] | 279 |
| CC1(c2ccccc2-c2ncc3c(N4C[C@H]5CC[C@@H](C4)N5)nc(OCC45CCCN4CCC5)nc3c2F)CC1 [Example 305, 4-((1R,5S)-3,8-diazabicyclo[3.2.1]octan-3-yl)-8-fluoro-2-((hexahydro-1H-pyrrolizin-7a-yl)methoxy)-7-(2-(1-methylcyclopropyl)phenyl)pyrido[4,3-d]pyrimidine] | 367 |
| Oc1cc(-c2ncc3c(N4C[C@H]5CC[C@@H](C4)N5)nc(OCC45CCCN4CCC5)nc3c2F)c2c(Cl)c(F)ccc2c1 [Example 245, 4-(4-((1R,5S)-3,8-diazabicyclo[3.2.1]octan-3-yl)-8-fluoro-2-((hexahydro-1H-pyrrolizin-7a-yl)methoxy)pyrido[4,3-d]pyrimidin-7-yl)-5-chloro-6-fluoronaphthalen-2-ol] | 0.5 |
| CN(C)C(=O)OC[C@H]1CC[C@@]2(COc3nc(N4CC5CCC(C4)N5)c4cnc(-c5cccc6cccc(Cl)c56)c(F)c4n3)CCCN12 [Example 405, (7a-(((4-(3,8-diazabicyclo[3.2.1]octan-3-yl)-7-(8-chloronaphthalen-1l-yl)-8-fluoropyrido[4,3-d]pyrimidin-2-yl)oxy)methyl)hexahydro-1H-pyrrolizin-3-yl)methyl dimethylcarbamate] | 2.2 |
| CC1(N)CN(c2nc(N3C[C@H]4CC[C@@H](C3)N4)c3cnc(-c4cccc5cccc(Cl)c45)c(F)c3n2)C1 [Example 125, 1-(4-((1R,5S)-3,8-diazabicyclo[3.2.1]octan-3-yl)-7-(8-chloronaphthalen-1-yl)-8-fluoropyrido[4,3-d]pyrimidin-2-yl)-3-methylazetidin-3-amine] | 668 |
| Cc1c(Cl)cccc1-c1ncc2c(N3C[C@H]4CC[C@@H](C3)N4)nc(OCC34CCCN3CCC4)nc2c1F [Example 274, 4-((1R,5S)-3,8-diazabicyclo[3.2.1]octan-3-yl)-7-(3-chloro-2-methylphenyl)-8-fluoro-2-((hexahydro-1H-pyrrolizin-7a-yl)methoxy)pyrido[4,3-d]pyrimidine] | 35.9 |
| COc1nc(N2C[C@H]3CC[C@@H](C2)N3)c2cnc(-c3cc(O)cc4cccc(Cl)c34)c(F)c2n1 [Example 360, 4-(4-((1R,5S)-3,8-diazabicyclo[3.2.1]octan-3-yl)-8-fluoro-2-methoxypyrido[4,3-d]pyrimidin-7-yl)-5-chloronaphthalen-2-ol] | 50.8 |
| Fc1c(-c2cccc3cccc(Cl)c23)ncc2c(N3C[C@H]4CC[C@@H](C3)N4)nc(N3CC4(CCN4)C3)nc12 [Example 130, 4-((1R,5S)-3,8-diazabicyclo[3.2.1]octan-3-yl)-7-(8-chloronaphthalen-1-yl)-8-fluoro-2-(1,6-diazaspiro[3.3]heptan-6-yl)pyrido[4,3-d]pyrimidine] | 1650 |
